Experimental data from PubChem BioAssay (NCI).
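Step 1: Grow cells in 96-well plates. Step 2: Expose to compound for 48 hours at 5 concentrations. Step 3: Interpolate endpoints linearly; if unreached, use highest concentration. TGI marks complete inhibition of growth.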

What was measured:
Assay in all cases: inhibition of tumour cell growth, NCI panel, 48 h
SW-620 colon = tested on: SW-620 colon
HS 578T breast = tested on: HS 578T breast
SNB-19 CNS = tested on: SNB-19 CNS
SK-MEL-28 melanoma = tested on: SK-MEL-28 melanoma
MDA-N = tested on: MDA-N
RXF 393 renal = tested on: RXF 393 renal
OVCAR-3 ovarian = tested on: OVCAR-3 ovarian
MDA-MB-231 breast = tested on: MDA-MB-231 breast
DU-145 prostate = tested on: DU-145 prostate
MCF7 breast = tested on: MCF7 breast
NCI-H460 lung = tested on: NCI-H460 lung
HCC-2998 colon = tested on: HCC-2998 colon
RPMI-8226 leukemia = tested on: RPMI-8226 leukemia
COLO 205 colon = tested on: COLO 205 colon
MDA-MB-435 = tested on: MDA-MB-435
NCI-H23 lung = tested on: NCI-H23 lung
OVCAR-5 ovarian = tested on: OVCAR-5 ovarian
OVCAR-8 ovarian = tested on: OVCAR-8 ovarian
K-562 leukemia = tested on: K-562 leukemia
HT29 colon = tested on: HT29 colon
PC-3 prostate = tested on: PC-3 prostate
SF-268 CNS = tested on: SF-268 CNS
SNB-75 CNS = tested on: SNB-75 CNS
BT-549 breast = tested on: BT-549 breast
IGROV1 ovarian = tested on: IGROV1 ovarian
HOP-62 NSCLC = tested on: HOP-62 NSCLC
HL-60(TB) leukemia = tested on: HL-60(TB) leukemia
NCI-H226 lung = tested on: NCI-H226 lung
MALME-3M melanoma = tested on: MALME-3M melanoma
SF-539 CNS = tested on: SF-539 CNS
NCI/ADR-RES ovarian = tested on: NCI/ADR-RES ovarian
ACHN renal = tested on: ACHN renal
KM12 colon = tested on: KM12 colon
TK-10 renal = tested on: TK-10 renal
U251 CNS = tested on: U251 CNS
M14 melanoma = tested on: M14 melanoma
HCT-15 colon = tested on: HCT-15 colon
CCRF-CEM leukemia = tested on: CCRF-CEM leukemia
SF-295 CNS = tested on: SF-295 CNS
SR leukemia = tested on: SR leukemia
786-0 renal = tested on: 786-0 renal
A549 NSCLC = tested on: A549 NSCLC
NCI-H522 lung = tested on: NCI-H522 lung
SN12C renal = tested on: SN12C renal
UACC-257 melanoma = tested on: UACC-257 melanoma
UACC-62 melanoma = tested on: UACC-62 melanoma
MOLT-4 leukemia = tested on: MOLT-4 leukemia
OVCAR-4 ovarian = tested on: OVCAR-4 ovarian
SK-OV-3 ovarian = tested on: SK-OV-3 ovarian
EKVX NSCLC = tested on: EKVX NSCLC
HOP-92 NSCLC = tested on: HOP-92 NSCLC
HCT-116 colon = tested on: HCT-116 colon
SK-MEL-5 melanoma = tested on: SK-MEL-5 melanoma
T-47D breast = tested on: T-47D breast
SK-MEL-2 melanoma = tested on: SK-MEL-2 melanoma
LOX IMVI melanoma = tested on: LOX IMVI melanoma
CAKI-1 renal = tested on: CAKI-1 renal
A498 renal = tested on: A498 renal

For `Cc1nc2c(n1CCCl)C(=O)c1ccccc1C2=O`, the TGI (SW-620 colon) was 88.9 µM, the TGI (HS 578T breast) was greater than 100 µM and the TGI (SNB-19 CNS) was greater than 100 µM. It also gave a TGI (SK-MEL-28 melanoma) greater than 100 µM, a TGI (MDA-N) of 32.6 µM and a TGI (RXF 393 renal) of 46.2 µM. For the same compound, the TGI (OVCAR-3 ovarian) was greater than 100 µM, the TGI (MDA-MB-231 breast) was 56.5 µM and the TGI (DU-145 prostate) was greater than 100 µM. The TGI (MCF7 breast) was 41.6 µM, the TGI (NCI-H460 lung) was 65.9 µM and the TGI (HCC-2998 colon) was 67.5 µM. For the same compound, the TGI (RPMI-8226 leukemia) was greater than 100 µM, the TGI (COLO 205 colon) was 30.2 µM and the TGI (MDA-MB-435) was 28.6 µM. For the same compound, the TGI (NCI-H23 lung) was 92.2 µM, the TGI (OVCAR-5 ovarian) was 36.3 µM and the TGI (OVCAR-8 ovarian) was 42.6 µM. For the same compound, the TGI (K-562 leukemia) was greater than 100 µM, the TGI (HT29 colon) was 44.7 µM and the TGI (PC-3 prostate) was 46.1 µM. For the same compound, the TGI (SF-268 CNS) was greater than 100 µM, the TGI (SNB-75 CNS) was greater than 100 µM and the TGI (BT-549 breast) was 38.3 µM. It also gave a TGI (IGROV1 ovarian) of 41.6 µM, a TGI (HOP-62 NSCLC) of 62.4 µM and a TGI (HL-60(TB) leukemia) of 83.8 µM. It also gave a TGI (NCI-H226 lung) of 50.1 µM, a TGI (MALME-3M melanoma) of 19.2 µM and a TGI (SF-539 CNS) greater than 100 µM. The TGI (NCI/ADR-RES ovarian) was 63.6 µM, the TGI (ACHN renal) was greater than 100 µM and the TGI (KM12 colon) was greater than 100 µM. For the same compound, the TGI (TK-10 renal) was 78.5 µM, the TGI (U251 CNS) was 62.4 µM and the TGI (M14 melanoma) was 17.1 µM. For the same compound, the TGI (HCT-15 colon) was 40.9 µM, the TGI (CCRF-CEM leukemia) was greater than 100 µM and the TGI (SF-295 CNS) was 62.6 µM. It also gave a TGI (SR leukemia) greater than 100 µM, a TGI (786-0 renal) greater than 100 µM and a TGI (A549 NSCLC) greater than 100 µM. For the same compound, the TGI (NCI-H522 lung) was 49.6 µM, the TGI (SN12C renal) was greater than 100 µM and the TGI (UACC-257 melanoma) was 28.9 µM. It also gave a TGI (UACC-62 melanoma) of 44.2 µM, a TGI (MOLT-4 leukemia) of 78 µM and a TGI (OVCAR-4 ovarian) of 29.7 µM. The TGI (SK-OV-3 ovarian) was 79.6 µM, the TGI (EKVX NSCLC) was greater than 100 µM and the TGI (HOP-92 NSCLC) was 72.1 µM. The TGI (HCT-116 colon) was 36.6 µM.
`CCOC(=O)CCc1c(C)c2ccc(O)cc2oc1=O` gave a TGI (SW-620 colon) greater than 100 µM, a TGI (HS 578T breast) greater than 100 µM and a TGI (SK-MEL-5 melanoma) greater than 100 µM. The TGI (SNB-19 CNS) was greater than 100 µM, the TGI (SK-MEL-28 melanoma) was greater than 100 µM and the TGI (MDA-N) was greater than 100 µM. The TGI (RXF 393 renal) was greater than 100 µM, the TGI (OVCAR-3 ovarian) was greater than 100 µM and the TGI (MDA-MB-231 breast) was greater than 100 µM. The TGI (DU-145 prostate) was greater than 100 µM, the TGI (MCF7 breast) was greater than 100 µM and the TGI (NCI-H460 lung) was greater than 100 µM. It also gave a TGI (HCC-2998 colon) greater than 100 µM, a TGI (RPMI-8226 leukemia) greater than 100 µM and a TGI (COLO 205 colon) greater than 100 µM. It also gave a TGI (MDA-MB-435) greater than 100 µM, a TGI (NCI-H23 lung) greater than 100 µM and a TGI (OVCAR-5 ovarian) greater than 100 µM. The TGI (OVCAR-8 ovarian) was greater than 100 µM, the TGI (K-562 leukemia) was greater than 100 µM and the TGI (HT29 colon) was greater than 100 µM. It also gave a TGI (PC-3 prostate) greater than 100 µM, a TGI (T-47D breast) greater than 100 µM and a TGI (SF-268 CNS) greater than 100 µM. It also gave a TGI (SNB-75 CNS) greater than 100 µM, a TGI (BT-549 breast) greater than 100 µM and a TGI (IGROV1 ovarian) greater than 100 µM. The TGI (HOP-62 NSCLC) was greater than 100 µM, the TGI (HL-60(TB) leukemia) was greater than 100 µM and the TGI (NCI-H226 lung) was greater than 100 µM. It also gave a TGI (MALME-3M melanoma) greater than 100 µM, a TGI (SK-MEL-2 melanoma) greater than 100 µM and a TGI (SF-539 CNS) greater than 100 µM. It also gave a TGI (NCI/ADR-RES ovarian) greater than 100 µM, a TGI (ACHN renal) greater than 100 µM and a TGI (TK-10 renal) greater than 100 µM. The TGI (U251 CNS) was greater than 100 µM, the TGI (M14 melanoma) was greater than 100 µM and the TGI (HCT-15 colon) was greater than 100 µM. The TGI (CCRF-CEM leukemia) was greater than 100 µM, the TGI (SF-295 CNS) was greater than 100 µM and the TGI (SR leukemia) was greater than 100 µM. The TGI (786-0 renal) was greater than 100 µM, the TGI (A549 NSCLC) was greater than 100 µM and the TGI (NCI-H522 lung) was greater than 100 µM. For the same compound, the TGI (SN12C renal) was greater than 100 µM, the TGI (LOX IMVI melanoma) was greater than 100 µM and the TGI (UACC-257 melanoma) was greater than 100 µM. It also gave a TGI (UACC-62 melanoma) greater than 100 µM, a TGI (CAKI-1 renal) greater than 100 µM and a TGI (MOLT-4 leukemia) greater than 100 µM. The TGI (OVCAR-4 ovarian) was greater than 100 µM, the TGI (A498 renal) was greater than 100 µM and the TGI (EKVX NSCLC) was greater than 100 µM. For the same compound, the TGI (HOP-92 NSCLC) was greater than 100 µM and the TGI (HCT-116 colon) was greater than 100 µM.
